{"source": "patent US10669227B2", "about": "(THE RESEARCH FOUNDATION OF STATE UNIVERSITY OF NEW YORK, priority 2009, dated 2020)", "key": {"NFκB activation": {"system": "NFκB activation", "assay": "NFκB activation in human monocytes in cell culture", "format": "cell-based", "settings": "Monocyte"}, "alveolar bone loss": {"system": "alveolar bone loss", "assay": "Diabetic rat, alveolar bone loss, morphometric", "format": "in vivo", "settings": "500 mg/kg oral, 3 weeks", "procedure": "(§1) At the end of the treatment protocol, the rats were sacrificed, blood samples were collected, and whole skin (except over limbs) and qingiva were dissected (the skin, because of ample quantities of tissue were analyzed for each rat separately; the gingiva, because of the tiny amounts that could be harvested per rat, were pooled for each experimental group, as prescribed previously for tetracycline studies (30). In addition, the jaw bones were collected, defleshed, and bone loss around the teeth analyzed morphometrically as described previously (42, 43).\nAlveolar bone loss (the signature pathologic event in inflammatory periodontal disease) was assessed in the defleshed jaws of the compound 1-treated (TX) and untreated rats."}, "TNF-α": {"system": "TNF-α", "assay": "Inhibition of TNF-α production by LPS-stimulated monocytes", "format": "cell-based, human", "procedure": "(§2) Briefly, human peripheral blood monocytes (HMs) were isolated from a leukocyte concentrate by density gradient centrifugation (Lymphoprep) and the isolated HMs cultured (2 h, 37° C.) to remove non-adherent cells. The adherent HMs wore cultured for 18 h (1×10^6 cells/well, 24-well plates)±endotoxin (LPS)±different compounds dissolved in DMSO (the final concentration of DMSO in the RPMI serum-free culture media with Pen./Strep. antibiotics was no greater than 0.5%). After incubation, the proinflammatory cytokines, TNFα, […], MCP-1 and IL-6 were measured in the conditioned media by ELISA and cytotoxicity was assessed by measuring the absorbance (490 nm) of formazan produced by reduction of MTS. The HMs alone±0.1-0.5% DMSO produced minimal levels of these pro-inflammatory cytokines. However, addition of 100 ng/ml or 10 μg/ml of LPS both dramatically stimulated cytokine production.\n(§3) The cytokine levels were measured by Luminex multiplex, a method that allows the simultaneous measurement of different biological markers."}, "MCP-1": {"system": "MCP-1", "assay": "Inhibition of MCP-1 production by LPS-stimulated monocytes", "format": "cell-based, human", "procedure": "as §2, §3"}, "[1]": {"assay": "Solubility in aqueous solutions", "format": "physicochemical", "settings": "comparative"}, "[2]": {"system": "PC-3 human prostate cancer cells", "assay": "MMP-9 in conditioned media of PC-3 cells, gelatin zymography and Western blot", "format": "cell-based", "settings": "10 μM and 20 μM, 48 hr, serum-free", "procedure": "Compound 1 was evaluated in a cell culture model of cancer. […] After the incubation, aliquots of the conditioned media were assayed for MMP-9 (gelatinase B) by either of two techniques, gelatin zymography (in the presence of 2 or 10 mMCa^++) and Western blot (both assays used purified MMP-9, 92 kDa gelatinase, as a standard)."}, "[3]": {"system": "neonatal rat ventricular myocytes", "assay": "Hydrogen peroxide induced LDH release", "format": "cell-based", "settings": "10 μM, H2O2 100 μM, 24 h", "procedure": "Neonatal rat ventricular myocytes, serum starved for 24 h, were treated with the inhibitors 1 h prior to the addition of 100 μM of hydrogen peroxide (Sigma). LDH release in the conditioned media was quantified using CytoTox-ONE Homogeneous Membrane Integrity Assay reagent (Promega) at the indicated time points."}, "[4]": {"assay": "Type I diabetic rat model, 3-week oral treatment: blood glucose and hemoglobin A1c", "format": "in vivo", "settings": "diabetic rats, 100 and 500 mg/kg oral daily, 3 weeks", "procedure": "as §1"}, "[5]": {"target": "MMP-9 (92 kDa gelatinase) (Rattus norvegicus (Rat), UniProt P50282)", "assay": "Diabetic rat, plasma gelatinase by gelatin zymography (MMP-9)", "format": "in vivo", "settings": "diabetic rats, 100 mg/kg oral once/day, 7 days"}, "caspase-3 activity": {"system": "caspase-3 activity", "assay": "Doxorubicin mediated caspase-3 activity", "format": "cell-based, rat", "settings": "10 μM, doxorubicin 500 nM, any time point", "procedure": "Neonatal rat ventricular myocytes, serum starved for 24 h, were treated with the inhibitors 1 h prior to the addition of 500 nM of doxorubicin (Sigma). At the indicated time points cells were washed with ice-cold phosphate buffered saline and lysed using RIPA buffer (Pierce) containing protease and phosphatase inhibitors (Sigma). Caspase-3 activity in the cell lysates was measured by incubation with 7-amino-4-trifluoromethyl coumarin (Enzo)."}, "collagenase-2 (MMP-8)": {"target": "collagenase-2 (MMP-8) (Rattus norvegicus (Rat), UniProt O88766)", "assay": "Diabetic rat, MMP-8 in skin extracts by Western blot", "format": "in vivo", "settings": "diabetic rats, 100 mg/kg oral once/day, 7 days", "procedure": "The latter assays were carried out using Western blot analysis with monoclonal antibodies to MMP-8."}, "MMP-2": {"system": "MMP-2", "assay": "Diabetic rat, MMP-2 in skin by ELISA", "format": "in vivo", "settings": "both low and high doses, 3 weeks", "procedure": "as §1"}, "MMP-13 (Collagenase-3)": {"target": "MMP-13 (Collagenase-3) (Homo sapiens (Human), UniProt P45452)", "assay": "MMP-13 inhibition in vitro, octapeptide substrate, HPLC", "format": "biochemical", "settings": "read-out: MMP-13 Maximum Inhibition @100 μM"}, "VEGF": {"system": "VEGF", "assay": "VEGF level in LPS-challenged human monocytes, Luminex multiplex", "format": "cell-based", "settings": "2 μM, FIG. 2", "procedure": "as §3"}, "IL-1β": {"target": "IL-1β (Rattus norvegicus (Rat), UniProt Q63264)", "assay": "Diabetic rat, IL-1β in gingiva extracts by ELISA", "format": "in vivo", "settings": "3 weeks", "procedure": "as §1"}, "[6]": {"system": "p38 MAP kinase activation", "assay": "p38 MAP kinase activation, preliminary studies", "format": "cell-based"}, "MMP-9": {"target": "MMP-9 (Rattus norvegicus (Rat), UniProt P50282)", "assay": "Diabetic rat, gingiva gelatinase by gelatin zymography (MMP-9)", "format": "in vivo", "settings": "diabetic rats, 100 and 500 mg/kg oral daily, 3 weeks", "procedure": "as §1\nThis appearance of MMP-9 only in the gingiva (FIG. 10), but not the skin (FIG. 12), of the diabetic rats is likely the result of the oral bacteria inducing inflammation in the gingiva of these immune-suppressed UD rats, whereas the skin is not exposed to this onslaught of bacteria particularly the anaerobic gram-negative bacteria in the mouth that cause periodontal and gingival inflammation."}, "human monocytes": {"system": "human monocytes", "assay": "Cytotoxicity in human monocytes (MTS)", "format": "cell-based", "procedure": "as §2, with “The adherent HMs wore cultured for 18 h (1×10^6 cells/well, 24-well plates)±endotoxin (LPS)±different compounds dissolved in DMSO (the final concentration of DMSO in the RPMI serum-free culture media with Pen./Strep. antibiotics was no greater than 0.5%).” left out"}, "[7]": {"target": "MMP-2 (72 kDa gelatinase) (Rattus norvegicus (Rat), UniProt P33436)", "assay": "Diabetic rat, plasma gelatinase by gelatin zymography (MMP-2)", "format": "in vivo", "settings": "diabetic rats, 100 mg/kg oral once/day, 7 days"}}, "note": "“Also recorded” adds a separate entry of the source."}
{"compound": "COC(=O)C(C(=O)/C=C/c1ccc(O)c(OC)c1)C(=O)/C=C/c1ccc(O)c(OC)c1", "note": "[Compound 1, 1,7-Bis(4-hydroxy-3-methoxyphenyl)-4-methoxycarbonylhepta-1E,6E-dien-3,5-dione]", "values": [{"measurement": "inhibition at 2 µM", "setting": "NFκB activation; CRP/oxid-LDL Complex", "result": 91, "unit": "%"}, {"measurement": "inhibition at 10 µM", "setting": "NFκB activation; CRP/oxid-LDL Complex", "result": 100, "unit": "%"}, {"measurement": "inhibition at 2 µM", "setting": "NFκB activation; Endotoxin (LPS)", "result": 24, "unit": "%"}, {"measurement": "inhibition at 10 µM", "setting": "NFκB activation; Endotoxin (LPS)", "result": 85, "unit": "%"}, {"measurement": "Reduction in alveolar bone loss vs untreated groups", "setting": "alveolar bone loss", "result": "less effective"}, {"measurement": "TNFα level in LPS-challenged human monocytes, Luminex multiplex", "setting": "TNF-α; 2 μM, FIG. 2", "result": "potent in reducing"}, {"measurement": "inhibition at 2 µM", "setting": "TNF-α; Homo sapiens, Monocyte, 18 h, 2 uM, read-out: % Inhibition of TNF-α produced by stimulated Monocytes with LPS @ 18 h", "result": 63, "unit": "%"}, {"measurement": "inhibition at 25 µM", "setting": "TNF-α; Homo sapiens, Monocyte, 18 h, 25 uM, read-out: % Inhibition of TNF-α produced by stimulated Monocytes with LPS @ 18 h", "result": 100, "unit": "%"}, {"measurement": "inhibition at 50 µM", "setting": "TNF-α; Homo sapiens, Monocyte, 18 h, 50 uM, read-out: % Inhibition of TNF-α produced by stimulated Monocytes with LPS @ 18 h", "result": 100, "unit": "%"}, {"measurement": "MCP-1 level in LPS-challenged human monocytes, Luminex multiplex", "setting": "MCP-1; 2 μM, FIG. 2", "result": "potent in reducing"}, {"measurement": "inhibition at 2 µM", "setting": "MCP-1; Homo sapiens, Monocyte, 18 h, 2 uM, read-out: % Inhibition of MCP-1 produced by stimulated Monocytes with LPS @ 18 h", "result": 74, "unit": "%"}, {"measurement": "inhibition at 25 µM", "setting": "MCP-1; Homo sapiens, Monocyte, 18 h, 25 uM, read-out: % Inhibition of MCP-1 produced by stimulated Monocytes with LPS @ 18 h", "result": 78, "unit": "%"}, {"measurement": "inhibition at 50 µM", "setting": "MCP-1; Homo sapiens, Monocyte, 18 h, 50 uM, read-out: % Inhibition of MCP-1 produced by stimulated Monocytes with LPS @ 18 h", "result": 79, "unit": "%"}, {"measurement": "Solubility", "setting": "[1]", "result": "improved solubility; also recorded: more soluble than the insoluble natural product curcumin"}, {"measurement": "MMP-9 production and/or activity in conditioned media", "setting": "[2]", "result": "inhibited the production and/or activity of MMP-9"}, {"measurement": "LDH release", "setting": "[3]", "result": "less dramatic effect"}, {"measurement": "Blood glucose", "setting": "[4]", "result": "no significant effect"}, {"measurement": "Hemoglobin A1c level", "setting": "[4]", "result": "no significant effect"}, {"measurement": "Plasma MMP-9 level", "setting": "[5]", "result": "reduced the excessive levels of MMPs to essentially normal levels"}, {"measurement": "Effect on doxorubicin mediated caspase-3 activity", "setting": "caspase-3 activity", "result": "None of the MMP inhibitors, including compound 1, negatively modulate caspase-3 activity"}, {"measurement": "MMP-8 level in skin extracts", "setting": "collagenase-2 (MMP-8)", "result": "A similar pattern was observed"}, {"measurement": "Reduction of elevated MMP-2 level in skin", "setting": "MMP-2", "result": 28, "unit": "%"}, {"measurement": "inhibition at 100 µM", "setting": "MMP-13 (Collagenase-3)", "result": 69, "unit": "%"}, {"measurement": "VEGF level in LPS-challenged human monocytes, Luminex multiplex", "setting": "VEGF", "result": "potent in reducing"}, {"measurement": "Reduction of IL-1β in gingiva vs untreated diabetic", "setting": "IL-1β; higher oral dose (500 mg/kg)", "result": 95, "unit": "%"}, {"measurement": "Reduction of IL-1β in gingiva vs untreated diabetic", "setting": "IL-1β; lower dose (100 mg/kg)", "result": "about 18%"}, {"measurement": "Effect on p38 MAP kinase activation", "setting": "[6]", "result": "little/no effect"}, {"measurement": "MMP-9 level in gingiva", "setting": "MMP-9", "result": "reduced MMP-9 to the undetectable levels"}, {"measurement": "Cytotoxicity Monocytes @ 5 h incubation", "setting": "human monocytes; 2 uM", "result": 2, "unit": "uM - 0%"}, {"measurement": "Cytotoxicity Monocytes @ 5 h incubation", "setting": "human monocytes; 10 uM", "result": 10, "unit": "uM - 0%"}, {"measurement": "Cytotoxicity Monocytes @ 5 h incubation", "setting": "human monocytes; 25 uM", "result": 25, "unit": "uM - 33%"}, {"measurement": "Cytotoxicity Monocytes @ 18 h incubation", "setting": "human monocytes; 25 uM", "result": 25, "unit": "uM - 45.5%"}, {"measurement": "Cytotoxicity Monocytes @ 18 h incubation", "setting": "human monocytes; 50 uM", "result": 50, "unit": "uM - 53%"}, {"measurement": "Plasma MMP-2 level", "setting": "[7]", "result": "reduced the excessive levels of MMPs to essentially normal levels"}]}
